In patent US12662491B2 (Redona Therapeutics, Inc., priority 2020, dated 2026):

Each molecule was assayed against T1, Zcchc11 enzyme (Homo sapiens, UniProt Q5TAX3) (assay: TUTase assay (Zcchc11 assay, Lin28a-dependent polyuridylation of pre-let-7)). Settings: Lin28a-dependent Zcchc11 (Z11) TUTase activity; read-out: Potency Lin28a-dep Z11 IC50.
T1 construct: made in house; host or cells: HEK293 cells (Zcchc11); E. coli Rosetta II (LIN28A)
T1 sequence (Q5TAX3 212-1420): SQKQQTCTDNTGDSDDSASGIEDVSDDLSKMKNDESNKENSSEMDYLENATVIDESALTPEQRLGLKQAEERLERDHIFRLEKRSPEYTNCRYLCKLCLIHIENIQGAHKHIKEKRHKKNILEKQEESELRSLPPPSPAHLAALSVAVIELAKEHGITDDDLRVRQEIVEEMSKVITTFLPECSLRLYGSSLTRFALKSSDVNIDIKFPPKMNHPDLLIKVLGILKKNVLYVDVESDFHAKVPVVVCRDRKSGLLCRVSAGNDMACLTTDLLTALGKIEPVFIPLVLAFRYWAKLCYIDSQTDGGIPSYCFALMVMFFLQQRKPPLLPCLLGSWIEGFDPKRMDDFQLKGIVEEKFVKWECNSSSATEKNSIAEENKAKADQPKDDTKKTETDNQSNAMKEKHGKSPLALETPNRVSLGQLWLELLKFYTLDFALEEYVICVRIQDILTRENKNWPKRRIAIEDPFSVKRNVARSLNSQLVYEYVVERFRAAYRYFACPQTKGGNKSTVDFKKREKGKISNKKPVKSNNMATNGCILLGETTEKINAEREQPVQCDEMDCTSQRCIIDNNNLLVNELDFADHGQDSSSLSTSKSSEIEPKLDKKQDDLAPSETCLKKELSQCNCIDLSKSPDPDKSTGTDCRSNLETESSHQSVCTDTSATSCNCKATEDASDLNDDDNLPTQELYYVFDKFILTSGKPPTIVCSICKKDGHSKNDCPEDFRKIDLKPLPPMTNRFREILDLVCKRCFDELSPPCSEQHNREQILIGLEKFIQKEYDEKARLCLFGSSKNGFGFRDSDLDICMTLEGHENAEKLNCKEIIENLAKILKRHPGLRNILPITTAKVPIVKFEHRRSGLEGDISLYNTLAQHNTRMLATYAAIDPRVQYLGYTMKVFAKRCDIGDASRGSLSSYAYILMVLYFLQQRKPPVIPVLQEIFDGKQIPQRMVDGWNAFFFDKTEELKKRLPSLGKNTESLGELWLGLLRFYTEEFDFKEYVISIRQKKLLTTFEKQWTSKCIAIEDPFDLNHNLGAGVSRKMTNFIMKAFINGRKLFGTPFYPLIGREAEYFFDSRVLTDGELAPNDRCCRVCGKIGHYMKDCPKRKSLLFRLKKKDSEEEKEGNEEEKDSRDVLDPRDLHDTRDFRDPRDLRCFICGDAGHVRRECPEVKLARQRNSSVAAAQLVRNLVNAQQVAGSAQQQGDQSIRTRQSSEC
Assay type: biochemical
Procedure, shortened: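 HEK293-expressed human Zcchc11 (residues 212-1420, 0.2 nM) with 10 nM LIN28A and 2 nM 5′-fluorescein pre-let-7, preincubated 30 min at room temperature, pH 7.3. Started with 5 uM UTP; poly(U) tails quenched by 3′-rhodamine A20 probe, read kinetically. IC50 from early-rate four-parameter fit; no-UTP wells define 0%.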

SMILES | IC50 [µM]
O=C(O)c1cn(-c2ccc(N3CCC3)nc2)c2cc(N3C(=O)CC[C@@H]3COc3ccccn3)c(Cl)cc2c1=O [Compound 287, (R)-1-(6-(azetidin-1-yl)pyridin-3-yl)-6-chloro-4-oxo-7-(2-oxo-5-((pyridin-2-yloxy)methyl)pyrrolidin-1-yl)-1,4-dihydro-quinoline-3-carboxylic acid] | 10 to 50
CC1(n2cc(C(=O)O)c(=O)c3cc(Cl)c(N4C(=O)CC[C@H]4COc4ccccn4)cc32)CC1 [Compound 288, (S)-6-chloro-1-(1-methylcyclo-propyl)-4-oxo-7-(2-oxo-5-((pyridin-2-yloxy)methyl)pyrrolidin-1-yl)-1,4-dihydro-quinoline-3-carboxylic acid] | > 50
O=C(O)c1cn(-c2ccc(N3CCC3)nc2)c2cc(N3CCC[C@@H]3COc3ncccc3F)c(Cl)cc2c1=O [Compound 289, (R)-1-(6-(azetidin-1-yl)pyridin-3-yl)-6-chloro-7-(2-(((3-fluoropyridin-2-yl)oxy)methyl)pyrrolidin-1-yl)-4-oxo-1,4-dihydro-quinoline-3-carboxylic acid] | ≤ 1
Cc1cccnc1OC[C@H]1CCCN1c1cc2c(cc1F)c(=O)c(C(=O)O)cn2-c1cnn(C)c1 [Compound 291, (R)-6-fluoro-1-(1-methyl-1H-pyrazol-4-yl)-7-(2-(((3-methylpyridin-2-yl)oxy)methyl)pyrrolidin-1-yl)-4-oxo-1,4-dihydro-quinoline-3-carboxylic acid] | ≤ 1
CN(C)C(=O)NC[C@H]1CCCN1c1cc2c(cc1Cl)c(=O)c(C(=O)O)cn2-c1ccc(N2CC(N(C)C)C2)nc1 [Compound 292, (R)-6-chloro-1-(6-(3-(dimethyl-amino)azetidin-1-yl)pyridin-3-yl)-7-(2-((3,3-dimethyl-ureido)methyl)pyrrolidin-1-yl)-4-oxo-1,4-dihydro-quinoline-3-carboxylic acid] | ≤ 1
CN(C)C1CN(c2ccc(-n3cc(C(=O)O)c(=O)c4cc(C#N)c(N5C[C@@H]6C[C@@H]6C5COc5ncccc5F)cc43)cn2)C1 (stereo partly drawn) [Compound 293, 6-cyano-1-(6-(3-(dimethyl-amino)azetidin-1-yl)pyridin-3-yl)-7-((1S,5R)-2-(((3-fluoropyridin-2-yl)oxy)methyl)-3-azabicyclo [3.1.0]hexan-3-yl)-4-oxo-1,4-dihydro-quinoline-3-carboxylic acid] | ≤ 1
COc1ccc(Cl)c(OC[C@H]2CCCN2c2cc3c(cc2Cl)c(=O)c(C(=O)O)cn3-c2ccc(N)nc2)n1 [Compound 294, (R)-1-(6-aminopyridin-3-yl)-6-chloro-7-(2-(((3-chloro-6-methoxy-pyridin-2-yl)oxy)methyl)pyrrolidin-1-yl)-4-oxo-1,4-dihydro-quinoline-3-carboxylic acid] | ≤ 1
CN(C)C1CN(c2ccc(-n3cc(C(=O)O)c(=O)c4cc(Cl)c(N5CCCC5)cc43)cn2)C1 [Compound 295, C6-chloro-1-(6-(3-(dimethyl-amino)azetidin-1-yl)pyridin-3-yl)-4-oxo-7-(pyrrolidin-1-yl)-1,4-dihydro-quinoline-3-carboxylic acid] | 1 to 10
CC1C[C@H](COc2ncccc2Cl)N(c2cc3c(cc2Cl)c(=O)c(C(=O)O)cn3-c2ccc(N3CC(N(C)C)C3)nc2)C1 (stereo partly drawn) [Compound 296, 6-chloro-7-((2R)-2-(((3-chloropyridin-2-yl)oxy)methyl)-4-methyl-pyrrolidin-1-yl)-1-(6-(3-(dimethyl-amino)azetidin-1-yl)pyridin-3-yl)-4-oxo-1,4-dihydro-quinoline-3-carboxylic acid] | ≤ 1
Cc1cc2c(=O)c(C(=O)O)cn(-c3ccnc(N)c3)c2cc1N1CCC[C@@H]1COc1ncccc1Cl [Compound 297, (R)-1-(2-aminopyridin-4-yl)-7-(2-(((3-chloropyridin-2-yl)oxy)methyl)pyrrolidin-1-yl)-6-methyl-4-oxo-1,4-dihydro-quinoline-3-carboxylic acid] | ≤ 1
